From publication PMC6128612, “Prodrugs for colon-restricted delivery: Design, synthesis, and in vivo evaluation of colony stimulating factor 1 receptor (CSF1R) inhibitors” (PLoS ONE, 2018)
Read-outs that look alike come from different tables or passages of the source.

Key:
[1] = biological target: CSF1R (Homo sapiens, UniProt P07333); experiment: CSF1R enzyme activity (TR-FRET binding displacement, kinase panel)
Method: TR-FRET-based binding displacement studies using active site probes were used to assess kinome selectivity of inhibitor molecules.[54] The concentrations of components for each purified kinase were based on optimized conditions with ranges as follows: kinases (1.25–12.5 nM), Oregon Green-labeled fluorescent probes (2x KD of probe to the particular kinase; range of 1–200 nM; in-house), terbium anti-His or anti-GST antibody (0.5–2 nM). The reaction buffer was diluted to 1x using ddH2O and contained 1 mM DTT.
Compounds were typically tested from 0.0001 to 10 μM in 10x dilutions. Reactions were carried out in a 20 μL volume in 384-well plates by combining kinase, probe, antibody, and test compound and allowing the reaction to come to equilibrium (incubation of 2 h). TR-FRET was then measured on a PerkinElmer Envision plate reader (excitation at 340 nm; emission at 520 and 495 nm). Competition by the test compound versus the fluorescent probe for the ATP binding site of the kinase was quantified by calculating the IC50 value based on a four-parameter logistic curve fit.

[2] = tested on: Mouse bone marrow derived macrophages (BMDM); experiment: Mouse macrophage differentiation assay (CSF-induced); format: cell-based
Method: Mouse bone marrow derived macrophages (BMDM) were isolated as previously described[53] from C57BL/6 female mice. The isolated cells were washed using standard growth medium (RPMI (Gibco cat# 11875–093) with 2 mM L-glutamine (Gibco cat# 25033), 1% Pen/Strep (Gibco cat# 15140), 10% heat inactivated fetal bovine serum (HI-FBS, Gibco cat# 10438), and 0.1% beta-mercaptoethanol (BME, Gibco cat# 21985–023)), and filtered through a […] cell strainer (Falcon cat# 352360). Cells were counted, re-suspended in growth medium, and plated at 1x10^5 viable cells per well in a 96 well plate (Corning cat# 3603). Inhibitors were added at various concentrations to the cells, and incubated at 37°C/5% CO2 for 30 minutes. Recombinant mouse macrophage colony stimulating factor (M-CSF, R&D cat# 416-ML-010) was added to the plates at a final concentration of […]. Plates were transferred to a 37°C/5% CO2 incubator for 5 days. On the fifth day, supernatant was removed from each well and Cell Titer Glo (Promega cat#G7571) was added. Plates were covered from the light and incubated at room temperature for 10 minutes before reading the luminescence on an EnVision plate reader (PerkinElmer).

[3] = PAMPA permeability; format: in vitro ADME
[4] = Pharmacokinetic studies of active parent in mice; format: in vivo; conditions: mouse; for clearance: male, CD1, blood, read-out: Blood Clearance (total clearance) (converted); for clearance / Blood Clearance (unbound clearance, CLb/fub): 1 mg/kg IV, N = 2–3; for FaFg: 1 mg/kg, F/Fh (compound 6) or AUCoral/AUCip
Method: Male CD1 mice on Teklad Global Diet 2014 (Envigo Teklad, Madison, WI) (n = 2–3 per study) received a single IV, oral or intraperitoneal (IP) administration of compounds 1, 4, 5 or 6 at 1 mg/kg in 2:5:20:73 (v/v) DMSO:Tween 80:PEG-400:D5W dosed at 10 ml/kg. Serial blood samples were taken over 24h and frozen at −20°C until analysis. Pharmacokinetic parameters after IP or PO dosing were calculated by noncompartmental methods, while pharmacokinetic parameters after IV dosing were calculated by compartmental methods using WinNonlin (version 5.2, Certara USA Inc., St. Louis, MO). Mean parameters were determined from 1–3 separate studies. FaFg was determined as F/Fh (compound 6) or as the ratio of AUC after an oral dose to that after an IP dose (AUCoral/AUCip).

[5] = Per rectal versus oral dosing of active parent: colon, liver, plasma exposure; format: in vivo; conditions: mouse
Method: Prior to dosing, mice were anaesthetized with Isoflurane and fecal material was removed from colons by irrigating with 0.5 mL of PBS using a syringe fitted with a 22 gauge flexible gavage needle. After a 20 min wake up period, mice were again anesthetized and drug was administered in a volume of 0.1–0.2 mL using a syringe fitted with a 22 gauge flexible gavage needle. Mice were then placed in the anesthesia chamber for 40 min in a supine position with hind end elevated to ensure drug remained in colon. After 40 min, mice were removed from the chamber and blood sampling over time (via tail nick) began.
(§1) Active Parent–Male CD1 mice (N = 3) received a single oral administration of compound 1 at 30 mg/kg prepared as a nanosuspension in 2% HPC-SL, 0.2% SDS in water and dosed at 10 ml/kg. Active Parent Prodrugs–Male CD1 mice or female C57BL/6 mice (N = 3) received a single oral adminstration of prodrug at 30 mg/kg active parent equivalent in either 10% Cremophor EL + 90% 1% Na-carboxymethylcellulose (NaCMC) at 10 ml/kg or as a nanosuspension in 2% HPC-SL, 0.2% SDS in water at 10 ml/kg.Blood samples were taken over 11 hours, and colon samples were taken at 3, 6 and/or 11 hours post dose. Mice received either Teklad Global Diet 2014 (Envigo Teklad, Madison, WI or LabDiet #5010 (LabDiet, St. Louis, MO).
(§2) Due to the inherent risk of fecal or PR-dosed material contaminating true levels of colon tissue exposure, careful flushing of colon tissue for drug analysis was required. Upon necropsy, a section of mouse colon was removed, and flushed with PBS until no visible fecal material was observed. Subsequently, a 1–2 cm section of colon was blotted dry, weighed and snap-frozen in liquid nitrogen.
(§3) Colon tissue (~50 mg) was diluted 10x in Veterinary Sterile Water for Irrigation (USP by Abbott), then 1.4 mm zirconium oxide beads were added and tissue was homogenized using an Omni Bead Ruptor 24 (Omni International, Kennesaw, GA). Aliquots of colon homogenate samples and a set of colon standards were pipetted in 96-well plates and subjected to protein precipitation extraction (with acetonitrile + internal standard) on a Microlab Star robot (Hamilton Robotics, Reno, NV). Plates were then mixed on a MixMate (Eppendorf, Hamburg, Germany) for 1 min at 1600 rpm and centrifuging for 5 min at 4000 rpm in 5810 R Centrifuge (Eppendorf, Hamburg, Germany). Supernatant was transferred into new plates and diluted with LC-MS/MS mobile phase.
(§4) Spiked standards were prepared in the appropriate matrices. All unknown samples and spiked standards were combined with acetonitrile containing internal standard, vortexed, and centrifuged to pellet the proteins. Supernatants were used for subsequent analysis by LC-MS/MS. The mobile phase consisted of acetonitrile with 0.1% formic acid, and water with 0.1% formic acid at a flow rate of 0.8 mL/min. Analytes were separated using reverse phase chromatography with a fast gradient on a 30 x 2.1 mm Fortis C18 Pace […] column, prior to analysis on a Sciex API5500™ mass spectrometer. Peak areas were determined using Sciex Analyst™ 1.6 software. Actual concentrations were calculated by regression analysis of the peak area ratio (parent / internal standard) of the spiked standards versus concentration.

[6] = tested on: IBA1+ macrophages in the colon; experiment: Mouse DSS model of colitis: colon macrophages by image analysis; format: in vivo; conditions: 100 mg/kg QD day 7–14
Method: (§5) On day 0, super prophylactic dosing of compound 2 began on C57BL/6 female mice. […] At this time compound 3 dosing initiated. […] Statistical analyses of in-vivo pharmacodynamic and efficacy data were performed as follows. D'Agostino & Pearson normality test was first used to test data for Gaussian distribution. If all groups passed normality test, a One-way ANOVA was used with Dunnett’s multiple comparisons test to compare treatment groups to Vehicle group. If not all groups passed normality test, a Kruskal-Wallis nonparametric ANOVA was used, with Dunn’s multiple comparison test to compare treatment groups to Vehicle group. Levels of significance compared to Vehicle are annotated as follows: * = p<0.05, ** = p<0.01, *** = p<0.001, **** = p < 0.0001. Optimal number of mice per group was determined using power analysis; N = 10 mice per group at 80% power predicts statistically significant detection of ≥ ~40% reduction in colon IBA1+ and ≥ ~75% reduction in colon erosion length comparing treatment groups to Vehicle group. Naïve groups were omitted from statistical analyses.

[7] = tested on: CD11b+ CD11c+ MHCII- nonclassical monocytes; experiment: Mouse DSS model of colitis: circulating non-classical monocytes by FACS; format: in vivo; conditions: 100 mg/kg QD day 7–14
Method: as §5

[8] = tested on: rheumatoid arthritis; parameters: method as in PMID 26233509; conditions: DMARD-refractory active RA patients; cited from earlier work
[9] = tested on: murine colitis; parameters: method as in earlier work; conditions: cited from earlier work
[10] = Oral administration of prodrugs to mice: colon, plasma, feces exposure; format: in vivo; conditions: mouse
Method: as §1, §2, §3, §4

[11] = Plasma stability in vitro; format: in vitro ADME, mouse
[12] = PK experiment dosing hemi-succinate 15 IV or PO; format: in vivo, mouse; conditions: IV or PO 1 mg/kg; 0.5 to 12 h
[13] = CSF-induced mouse macrophage differentiation, mean from n ≥3 experiments, read-out: Mouse Mac EC50
[14] = Mus musculus, adjusted for binding in 10% FBS, read-out: Cellular EC50 corrected for binding in 10% FBS

Sequence of CSF1R (P07333 20-972): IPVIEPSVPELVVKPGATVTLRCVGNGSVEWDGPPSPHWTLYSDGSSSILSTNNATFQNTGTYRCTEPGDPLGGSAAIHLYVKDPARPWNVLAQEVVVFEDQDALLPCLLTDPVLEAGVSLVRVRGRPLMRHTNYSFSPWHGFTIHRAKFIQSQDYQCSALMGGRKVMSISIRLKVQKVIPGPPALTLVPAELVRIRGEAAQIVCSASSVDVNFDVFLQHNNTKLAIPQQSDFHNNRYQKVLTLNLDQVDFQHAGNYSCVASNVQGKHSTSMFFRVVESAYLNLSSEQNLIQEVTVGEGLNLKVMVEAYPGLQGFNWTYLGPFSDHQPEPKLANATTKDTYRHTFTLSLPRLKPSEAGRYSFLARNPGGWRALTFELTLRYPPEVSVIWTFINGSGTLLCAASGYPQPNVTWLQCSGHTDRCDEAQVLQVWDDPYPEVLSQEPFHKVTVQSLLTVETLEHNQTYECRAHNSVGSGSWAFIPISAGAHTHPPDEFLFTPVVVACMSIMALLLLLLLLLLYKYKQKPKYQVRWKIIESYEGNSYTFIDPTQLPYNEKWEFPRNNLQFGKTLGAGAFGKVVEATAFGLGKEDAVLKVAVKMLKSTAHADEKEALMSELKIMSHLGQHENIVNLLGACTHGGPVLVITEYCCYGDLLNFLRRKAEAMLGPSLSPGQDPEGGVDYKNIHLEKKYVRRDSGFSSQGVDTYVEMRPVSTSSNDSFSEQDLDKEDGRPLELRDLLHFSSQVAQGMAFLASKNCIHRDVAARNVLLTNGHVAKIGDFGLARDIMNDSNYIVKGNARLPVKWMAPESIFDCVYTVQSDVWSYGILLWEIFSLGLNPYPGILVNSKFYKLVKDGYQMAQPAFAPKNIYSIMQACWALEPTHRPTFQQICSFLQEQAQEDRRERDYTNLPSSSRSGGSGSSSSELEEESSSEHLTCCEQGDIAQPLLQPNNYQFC

Structure (SMILES) | IC50 [1] | EC50 [2, 13] | EC50 [2, 14] | Papp [3] | clearance [4] | Blood Clearance (unbound clearance, CLb/fub) [4] | FaFg [4] | also measured
O[C@H]1CC[C@H](n2cc(Nc3nc(C4CCCCC4)cn4ncnc34)cn2)CC1 [Compound 1, (1r,4r)-4-(4-((6-Cyclohexyl-[1,2,4]triazolo[1,5-a]pyrazin-8-yl)amino)-1H-pyrazol-1-yl)cyclohexanol] | < 10 nM | 113 nM | 0.022 µg/mL | 15.6 ×10⁻⁶ cm/s | 75 mL/min/kg | 2500 mL/min/kg | 43% | Kp at 1 h ([5]; colon and plasma, other: per rectal (PR), PR 30 mg/kg, 1 h, read-out: colon:plasma ratio (unbound)): 22; Kp at 3 h ([5]; male, CD1, colon and plasma, PO 30 mg/kg, 3 h, read-out: colon:plasma ratio (unbound)): 0.5; Mean colon unbound Cmax ([5]; PO 30 mg/kg, 3 h): 9 ng/g; colon:liver ratio (unbound) ([5]; PO 30 mg/kg, 3 h): 0.34 x; Mean colon unbound Cmax ([5]; PR 30 mg/kg, 1 h): 67 ng/g; colon:liver ratio (unbound) ([5]; PR 30 mg/kg, 1 h): 7 x; Compound in the colon at the terminal time point ([5]; PR 30 mg/kg, 11 h): Lack of compound detection in the colon; 1 h colon exposure versus cellular EC50 ([5]; PR 30 mg/kg, unbound): exceeded the cellular EC50; 1 h plasma exposure exceeding cellular EC50 ([5]; PR 30 mg/kg, unbound): did not
CC1(C)CC=C(c2nc(C3CC(C)(C)OC(C)(C)C3)ccc2NC(=O)c2nc(C#N)c[nH]2)CC1 [Compound 3] |  |  |  |  |  |  |  | Depletion of macrophages (IBA1+) in the colon [6]: 76%; Depletion of CD11b+ CD11c+ MHCII- nonclassical monocytes [7]: 94%; Efficacy in Phase II trial [8]: lack of efficacy; Clinical and histopathological disease readouts [9]: reduction in clinical and histopathological disease readouts
OCCn1cc(Nc2nc(C3CCCCC3)cn3ncnc23)cn1 [Compound 4, 2-(4-((6-Cyclohexyl-[1,2,4]triazolo[1,5-a]pyrazin-8-yl)amino)-1H-pyrazol-1-yl)ethanol] | < 10 nM | 245 nM | 0.019 µg/mL | 14.1 ×10⁻⁶ cm/s | 108 mL/min/kg | 1700 mL/min/kg | 18% | 
CC(C)(O)CCn1cc(Nc2nc(C3CCCCC3)cn3ncnc23)cn1 [Compound 5, 4-(4-((6-Cyclohexyl-[1,2,4]triazolo[1,5-a]pyrazin-8-yl)amino)-1H-pyrazol-1-yl)-2-methylbutan-2-ol] | < 10 nM | 104 nM | 0.021 µg/mL | 8.7 ×10⁻⁶ cm/s | 80 mL/min/kg | 3280 mL/min/kg | 32% | 
O=C(O)[C@H]1CC[C@H](n2cc(Nc3nc(C4CCCCC4)cn4ncnc34)cn2)CC1 [Compound 6] | < 10 nM | 196 nM | 0.042 µg/mL | 14.6 ×10⁻⁶ cm/s | 16.7 mL/min/kg | 317 mL/min/kg | 35% | 
CN(C)CC(=O)OC1CCC(n2cc(Nc3nc(C4CCCCC4)cn4ncnc34)cn2)CC1 (centres unmarked) [Compound 7, (1r,4r)-4-(4-((6-Cyclohexyl-[1,2,4]triazolo[1,5-a]pyrazin-8-yl)amino)-1H-pyrazol-1-yl)cyclohexyl 2-(dimethylamino)acetate] |  |  |  |  |  |  |  | Prodrug levels in plasma after oral dosing ([10]; dose equal to 30 mg/kg of 1): no prodrug levels were measurable in plasma; Plasma versus colon levels of active parent 1 after oral prodrug ([10]; dose equal to 30 mg/kg of 1, 3 and 11 h): significantly higher plasma versus colon drug levels; Stability in plasma [11]: not stable in plasma
O=C(O)CCC(=O)O[C@H]1CC[C@H](n2cc(Nc3nc(C4CCCCC4)cn4ncnc34)cn2)CC1 [Compound 15, 4-(((1r,4r)-4-(4-((6-Cyclohexyl-[1,2,4]triazolo[1,5-a]pyrazin-8-yl)amino)-1H-pyrazol-1-yl)cyclohexyl)oxy)-4-oxobutanoic acid] |  |  |  |  |  |  |  | CSF1R enzyme activity inhibition [1]: able to inhibit CSF1R enzyme activity; Stability in plasma [11]: not stable in mouse plasma in vitro; Plasma levels of 15 [12]: no detectable plasma levels of 15
